Source: ChEMBL document CHEMBL5154887, “Novel CRBN-Recruiting Proteolysis-Targeting Chimeras as Degraders of Stimulator of Interferon Genes with In Vivo Anti-Inflammatory Efficacy” (J Med Chem, 2022)
Activity calls are given as the source filed them. The calls are words filed in the database; no cut-off is given here.

Tests used:
[1] = Toxicity in C57BL/6J mouse assessed as body weight loss at 60 mg/kg, ip measured after 4 days relative to control; type: organism-based; conditions: in vivo, 96 h, time 4 day
[2] = Cmax in Sprague-Dawley rat at 2 mg/kg, iv measured upto 48 hrs by UPLC-triple quadrupole MS analysis; type: ADME, organism-based; parameters: dose 2 mg/kg, time < 48 hrs, route iv; conditions: in vivo
[3] = In vivo inhibition of STING signalling pathway in cisplatin-induced acute kidney injury in C57BL/6J mouse model assessed as reduction in STING protein expression in kidney at 60 mg/kg, ip pretreated for 1 hr followed by cisplatin administration and measured after 72 hrs by Western blot analysis (Rvb= 375%); type: functional; parameters: scale not given: the % may be the effect or the level left; conditions: time 73 hrs
[4] = Cytotoxicity against HEK293-A cells assessed as cell growth inhibition at 30 uM by MTT assay relative to control; type: toxicity, cell-based; conditions: human
[5] = MRT (0 to infinity) in Sprague-Dawley rat at 20 mg/kg, po measured upto 48 hrs by UPLC-triple quadrupole MS analysis; type: ADME, organism-based; conditions: in vivo
[6] = test system: Mus musculus; assay: Renal protective activity against cisplatin-induced acute kidney injury in C57BL/6J mouse model assessed as reduction in kidney swelling at 60 mg/kg, ip by NMR based analysis; type: functional, organism-based
[7] = AUC (0 to t) in Sprague-Dawley rat at 2 mg/kg, iv measured upto 48 hrs by UPLC-triple quadrupole MS analysis; type: ADME, organism-based; parameters: time < 48 hrs, dose 2 mg/kg, route iv; conditions: in vivo
[8] = test system: THP-1; assay: Inhibition of cGAS-STING signalling pathway in human THP-1 cells assessed as downregulation of cGAMP-triggered IFN-beta expression preincubated for 2 hrs followed by cGAMP stimulation and measured after 24 hrs by ELISA; type: cell-based; conditions: dose 2.5-20 µM, time 26.0 hrs, DDE = dose-dependent effect
[9] = molecular target: T1, Protein cereblon/Stimulator of interferon genes protein (Homo sapiens, UniProt Q96SW2+Q86WV6); assay: Protac activity at CRBN/STING in human THP-1 cells assessed as increase in STING degradation at 10 uM incubated for 48 hrs by Western blot analysis relative to control; type: cell-based
T1 sequence (Q86WV6 whole entry, looked up): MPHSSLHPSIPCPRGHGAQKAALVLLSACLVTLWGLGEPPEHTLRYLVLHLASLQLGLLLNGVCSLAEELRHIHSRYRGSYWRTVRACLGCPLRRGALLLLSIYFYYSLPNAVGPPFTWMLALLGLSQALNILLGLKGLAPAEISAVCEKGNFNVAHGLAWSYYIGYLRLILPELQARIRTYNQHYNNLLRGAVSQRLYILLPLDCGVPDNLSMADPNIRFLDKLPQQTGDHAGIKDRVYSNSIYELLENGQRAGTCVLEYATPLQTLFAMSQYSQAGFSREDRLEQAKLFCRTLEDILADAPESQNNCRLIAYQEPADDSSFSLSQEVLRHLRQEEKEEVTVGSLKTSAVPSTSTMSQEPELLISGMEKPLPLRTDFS
T1 sequence (Q96SW2 whole entry, looked up): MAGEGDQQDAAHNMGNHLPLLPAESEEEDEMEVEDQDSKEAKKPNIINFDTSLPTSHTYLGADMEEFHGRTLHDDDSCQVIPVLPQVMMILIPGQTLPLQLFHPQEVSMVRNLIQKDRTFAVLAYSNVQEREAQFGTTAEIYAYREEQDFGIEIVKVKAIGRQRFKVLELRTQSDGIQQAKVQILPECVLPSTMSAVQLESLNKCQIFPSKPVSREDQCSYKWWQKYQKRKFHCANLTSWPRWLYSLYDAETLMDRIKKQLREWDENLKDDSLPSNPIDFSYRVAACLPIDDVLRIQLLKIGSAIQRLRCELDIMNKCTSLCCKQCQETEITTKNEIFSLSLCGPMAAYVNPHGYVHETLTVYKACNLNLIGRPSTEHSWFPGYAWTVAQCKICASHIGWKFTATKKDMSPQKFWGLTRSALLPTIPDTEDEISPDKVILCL

[10] = test system: THP-1; assay: Inhibition of cGAS-STING signalling pathway in human THP-1 cells assessed as downregulation of cGAMP-triggered CXCL10 expression preincubated for 2 hrs followed by cGAMP stimulation and measured after 24 hrs by ELISA; type: cell-based; conditions: dose 2.5-20 µM, time 26.0 hrs, DDE = dose-dependent effect
[11] = Clearance in Sprague-Dawley rat at 2 mg/kg, iv measured upto 48 hrs by UPLC-triple quadrupole MS analysis; type: ADME, organism-based; conditions: in vivo
[12] = Renal toxicity in C57BL/6J mouse assessed as reduction in creatinine level at 30 mg/kg, ip (Rvb= 8.5 umol/L); type: organism-based; conditions: in vivo
[13] = Renal toxicity in C57BL/6J mouse assessed as reduction in BUN level at 30 mg/kg, ip (Rvb= 8.9 mmol/L); type: organism-based; conditions: in vivo
[14] = Half life in Sprague-Dawley rat at 2 mg/kg, iv measured upto 48 hrs by UPLC-triple quadrupole MS analysis; type: ADME, organism-based; conditions: in vivo
[15] = Oral bioavailability in Sprague-Dawley rat at 20 mg/kg measured upto 48 hrs by UPLC-triple quadrupole MS analysis; type: ADME, organism-based; conditions: in vivo
[16] = test system: Mus musculus; assay: Antiinflammatory activity against cisplatin-induced acute kidney injury in C57BL/6J mouse model assessed as reduction in kidney weight at 30 mg/kg, ip pretreated for 1 hr followed by cisplatin administration and measured after 72 hrs relative to control; type: functional; parameters: scale not given: the % may be the effect or the level left; conditions: time 73 hrs
[17] = AUC (0 to infinity) in Sprague-Dawley rat at 2 mg/kg, iv measured upto 48 hrs by UPLC-triple quadrupole MS analysis; type: ADME, organism-based; parameters: time < 48 hrs, dose 2 mg/kg, route iv; conditions: in vivo
[18] = Cytotoxicity against HEK293-A cells assessed as reduction in cell viability at <10 uM by MTT assay; type: toxicity, cell-based; conditions: human
[19] = test system: Mus musculus; assay: Renal protective activity against cisplatin-induced acute kidney injury in C57BL/6J mouse model assessed as reduction in abnormal signal intensities of T2 at 60 mg/kg, ip by NMR based analysis; type: functional, organism-based
[20] = Toxicity in cisplatin-induced acute kidney injury in C57BL/6J mouse model assessed as tubular epithelial edema in kidney at 30 to 60 mg/kg, ip pretreated for 1 hr followed by cisplatin administration and measured after 72 hrs by H and E staining based analysis; type: organism-based; conditions: in vivo, 73 h, dose 30-60 mg/kg
[21] = Toxicity in cisplatin-induced acute kidney injury in C57BL/6J mouse model assessed as illegible tubular structure in kidney at 30 to 60 mg/kg, ip pretreated for 1 hr followed by cisplatin administration and measured after 72 hrs by H and E staining based analysis; type: organism-based; conditions: in vivo, 73 h, dose 30-60 mg/kg
[22] = Toxicity in cisplatin-induced acute kidney injury in C57BL/6J mouse model assessed as vacuole like changes in kidney at 30 to 60 mg/kg, ip pretreated for 1 hr followed by cisplatin administration and measured after 72 hrs by H and E staining based analysis; type: organism-based; conditions: in vivo, 73 h, dose 30-60 mg/kg
[23] = test system: Mus musculus; assay: In vivo inhibition of STING signalling pathway in ip dosed cisplatin-induced acute kidney injury in C57BL/6J mouse model assessed as reduction in CXCL10 expression in blood of mouse eyeballs pretreated for 1 hr followed by cisplatin administration and measured after 72 hrs by ELISA; type: functional, organism-based; conditions: time 73.0 hrs, DDE = dose-dependent effect
[24] = molecular target: T1, Protein cereblon/Stimulator of interferon genes protein; assay: Protac activity at CRBN/STING in human THP-1 cells assessed as increase in STING degradation at 10 uM pretreated with lysosome inhibitor BAF for 1 hr followed by compound addition and measured after 48 hrs by Western blot analysis; type: cell-based
[25] = Toxicity in cisplatin-induced acute kidney injury in C57BL/6J mouse model assessed as tubular obstruction in kidney at 30 to 60 mg/kg, ip pretreated for 1 hr followed by cisplatin administration and measured after 72 hrs by H and E staining based analysis; type: organism-based; conditions: in vivo, 73 h, dose 30-60 mg/kg
[26] = Toxicity in C57BL/6J mouse assessed as body weight loss at 30 mg/kg, ip measured after 4 days relative to control; type: organism-based; conditions: in vivo, 96 h, time 4 day
[27] = MRT (0 to t) in Sprague-Dawley rat at 2 mg/kg, iv measured upto 48 hrs by UPLC-triple quadrupole MS analysis; type: ADME, organism-based; conditions: in vivo
[28] = test system: Mus musculus; assay: In vivo inhibition of STING signalling pathway in ip dosed cisplatin-induced acute kidney injury in C57BL/6J mouse model assessed as reduction in IL-6 expression in blood of mouse eyeballs pretreated for 1 hr followed by cisplatin administration and measured after 72 hrs by ELISA; type: functional, organism-based; conditions: time 73.0 hrs, DDE = dose-dependent effect
[29] = test system: Mus musculus; assay: In vivo inhibition of STING signalling pathway in ip dosed cisplatin-induced acute kidney injury in C57BL/6J mouse model assessed as reduction in IFN-beta expression in blood of mouse eyeballs pretreated for 1 hr followed by cisplatin administration and measured after 72 hrs by ELISA; type: functional, organism-based; conditions: time 73.0 hrs, DDE = dose-dependent effect
[30] = test system: THP-1; assay: Inhibition of cGAS-STING signalling pathway in human THP-1 cells assessed as downregulation of cGAMP-triggered IL-6 expression preincubated for 2 hrs followed by cGAMP stimulation and measured after 24 hrs by ELISA; type: cell-based; conditions: dose 2.5-20 µM, time 26.0 hrs, DDE = dose-dependent effect

O=C(/C=C/C(=O)Nc1ccc(NC(=O)c2ccc([N+](=O)[O-])o2)cc1)NCCCCCCNc1cccc2c1C(=O)N(C1CCC(=O)NC1=O)C2=O (stereo not given)
Activity [1]: 9% | Cmax [2]: 0.318 µg/mL | Activity [3]: 70% | inhibition at 30 µM [4]: 11% | MRT inf [5]: 11.7 h | Activity [6]: Active | AUC(0-t) at 48 h [7]: 0.257 µg·h/mL | Activity [8]: Dde | Activity [9]: 76% | Activity [10]: Dde | clearance [11]: 6.8 L/h/kg | Activity [12]: 26.8 µmol/L | Activity [13]: 27.2 mmol/L | half-life [14]: 3.86 h | bioavailability [15]: 2.15% | Activity [16]: 14% | AUC(0-inf) [17]: 0.259 µg·h/mL | Activity [18]: Non-Toxic | Activity [19]: Active | Activity [20]: Non-Toxic | Activity [21]: Non-Toxic | Activity [22]: Non-Toxic | inhibition [23]: Dde | Activity [24]: Active | Activity [25]: Non-Toxic | Activity [26]: 13% | MRT last at 48 h [27]: 1.74 h | inhibition [28]: Dde | inhibition [29]: Dde | Activity [30]: Dde
